Reference: patent US8785489B2, “Heteroaryl substituted indole compounds useful as MMP-13 inhibitors” (Boehringer Ingelheim International GmbH, priority 2008, dated 2014)
pIC50: −log10 of the molar value.

What follows are compounds tested against MMP13 (Homo sapiens (Human), UniProt P45452) (assay: EnzoLyte 520 Generic MMP Assay Kit, 5-FAM/QXL 520 FRET peptide substrate).
Type: biochemical
From the text: The EnzoLyte™ 520 Generic MMP Assay Kit (AnaSpec Inc.) can detect the activity of several MMPs including MMP-1, 2, 3, 7, 8, 9, 13, and 14. This kit uses a 5-FAM/QXL™ 520 fluorescence resonance energy transfer (FRET) peptide as an MMP substrate. In the intact FRET peptide, the fluorescence of 5-FAM is quenched by QXL™ 520. Upon cleavage into two separate fragments by MMPs, the fluorescence of 5-FAM is recovered, and can be monitored at excitation/emission wavelengths=490 nm/520 nm. The assays are performed in a convenient 96-well or 384-well microplate format.

Row | pIC50 | SMILES
1 | 8.52 | Cc1noc(-c2cc3cc(-c4nc(C(=O)NCC5CCCO5)[nH]c4C)ccc3[nH]2)n1 (centres unmarked) [5-methyl-4-[2-(3-methyl-1,2,4-oxadiazol-5-yl)-1H-indol-5-yl]-N-(tetrahydrofuran-2-ylmethyl)-1H-imidazole-2-carboxamide]
2 | 8.30 | Cc1noc(-c2cc3cc(-c4nc(C(=O)NC[C@H]5CCCO5)[nH]c4C)ccc3[nH]2)n1 [5-methyl-4-[2-(3-methyl-1,2,4-oxadiazol-5-yl)-1H-indol-5-yl]-N-[(2R)-tetrahydrofuran-2-ylmethyl]-1H-imidazole-2-carboxamide]
3 | 7.85 | Cc1noc(-c2cc3cc(-c4cc(C(=O)NCc5ccncc5)ncc4C)ccc3[nH]2)n1
4 | 7.29 | CCOC(=O)c1cc2cc(-c3cc(C(=O)NCc4ccc(CC(=O)OC)cc4)nn3C)ccc2[nH]1
5 | 8.70 | CCOC(=O)c1cc2cc(-c3nc(C(=O)NCc4ccncc4)[nH]c3C)ccc2[nH]1
6 | 8.15 | CCOC(=O)c1cc2cc(-c3nc(C(=O)NCc4ccncc4)[nH]c3C)ncc2[nH]1
7 | 8.22 | Cc1noc(-c2cc3cc(-c4nc(C(=O)NCc5ccc(F)cc5)[nH]c4C)ccc3[nH]2)n1
8 | 8.92 | Cc1noc(-c2cc3cc(-c4nc(C(=O)NCc5ccnnc5)[nH]c4C)ccc3[nH]2)n1
9 | 8.15 | CCOC(=O)c1[nH]c2ccc(-c3nc(C(=O)NCc4ccncc4)[nH]c3C)cc2c1F
10 | 8.00 | Cc1noc(-c2cc3cc(-c4cc(C(=O)NCc5ccc(C#N)cc5)nn4C)ccc3[nH]2)n1
11 | 9.70 | Cc1noc(-c2cc3cc(-c4ccnc(C(=O)NCc5ccc(C(=O)O)cc5)c4)ccc3[nH]2)n1
12 | 8.82 | Cn1cc(-c2cc3cc(-c4cc(C(=O)NCc5ccc(C(=O)O)cc5)nn4C)ccc3[nH]2)cn1
13 | 9.02 | Cc1noc(-c2cc3cc(-c4nc(C(=O)NCc5ccnc(C#N)c5)[nH]c4C)ccc3[nH]2)n1 [N-[(2-cyanopyridin-4-yl)methyl]-5-methyl-4-[2-(3-methyl-1,2,4-oxadiazol-5-yl)-1H-indol-5-yl]-1H-imidazole-2-carboxamide]
14 | 7.03 | CCOC(=O)c1cc2cc(-c3ccnc(C(=O)NCc4ccncc4)c3)ccc2[nH]1 [5-{2-[(Pyridin-4-ylmethyl)-carbamoyl]-pyridin-4-yl}-1H-indole-2-carboxylic acid ethyl ester]
15 | 7.37 | Cn1nc(C(=O)NCc2ccc(C(=O)O)cc2)cc1-c1ccc2[nH]c(C3=NCCO3)cc2c1
16 | 8.00 | Cc1noc(-c2cc3cc(-c4cc(C(=O)NCc5cnn(C)c5)nn4C)ccc3[nH]2)n1 [1-methyl-5-[2-(3-methyl-1,2,4-oxadiazol-5-yl)-1H-indol-5-yl]-N-[(1-methyl-1H-pyrazol-4-yl)methyl]-1H-pyrazole-3-carboxamide]
17 | 7.62 | Cc1noc(-c2cc3cc(-c4cc(C(=O)NCc5cc(C)on5)nn4C)ccc3[nH]2)n1 [1-methyl-N-[(5-methylisoxazol-3-yl)methyl]-5-[2-(3-methyl-1,2,4-oxadiazol-5-yl)-1H-indol-5-yl]-1H-pyrazole-3-carboxamide]
18 | 8.30 | Cc1noc(-c2cc3cc(-c4nc(C(=O)NCC5CCCCO5)[nH]c4C)ccc3[nH]2)n1 (centres unmarked)
19 | 6.89 | Cc1cc(Cn2cc(-c3ccnc(C(=O)NCc4ccc(C(=O)O)cc4)c3)cn2)ccc1F
20 | 7.59 | Cc1noc(-c2cc3cc(-c4cc(C(=O)NCc5ccccc5)nn4C)ccc3[nH]2)n1 [N-benzyl-1-methyl-5-[2-(3-methyl-1,2,4-oxadiazol-5-yl)-1H-indol-5-yl]-1H-pyrazole-3-carboxamide]
21 | 9.70 | Cc1noc(-c2cc3cc(-c4nc(C(=O)NCc5ccc(C(=O)O)cc5)[nH]c4C)ccc3[nH]2)n1
22 | 7.72 | Cc1noc(-c2cc3cc(-c4cc(C(=O)NCc5ccno5)nn4C)ccc3[nH]2)n1 [N-(isoxazol-5-ylmethyl)-1-methyl-5-[2-(3-methyl-1,2,4-oxadiazol-5-yl)-1H-indol-5-yl]-1H-pyrazole-3-carboxamide]
23 | 9.70 | Cc1noc(-c2cc3cc(-c4cc(C(=O)NCc5ccc(C(=O)O)cc5)ncc4C)ccc3[nH]2)n1
24 | 8.52 | CCOC(=O)c1cc2cc(-c3cc(C(=O)NCc4ccc(CC(=O)O)cc4)nn3C)ccc2[nH]1
25 | 8.40 | Cc1noc(-c2cc3cc(-c4nc(C(=O)NC[C@@H]5CCCO5)[nH]c4C)ccc3[nH]2)n1 [5-methyl-4-[2-(3-methyl-1,2,4-oxadiazol-5-yl)-1H-indol-5-yl]-N-[(2S)-tetrahydrofuran-2-ylmethyl]-1H-imidazole-2-carboxamide]

Row | pIC50 | SMILES
26 | 8.80 | Cn1nc(C(=O)NCc2ccc(C(=O)O)cc2)cc1-c1ccc2[nH]c(-c3ncccn3)cc2c1
27 | 8.30 | Cn1nc(C(=O)NCc2ccc(C(=O)O)cc2)cc1-c1ccc2[nH]c(-c3cncnc3)cc2c1
28 | 7.42 | Cc1nc(-c2cc3cc(-c4ccnc(C(=O)NCc5ccncc5)c4)ccc3[nH]2)no1
29 | 7.52 | Cc1cc(-c2cc3cc(-c4cc(C(=O)NCc5ccc(C(=O)O)cc5)nn4C)ccc3[nH]2)ccc1F
30 | 7.35 | Cc1noc(-c2cc3cc(-c4cc(C(=O)NCc5ccoc5)nn4C)ccc3[nH]2)n1
31 | 6.90 | Cc1noc(-c2cc3cc(-c4cc(C(=O)NCc5ccnn5C)nn4C)ccc3[nH]2)n1 [1-methyl-5-[2-(3-methyl-1,2,4-oxadiazol-5-yl)-1H-indol-5-yl]-N-[(1-methyl-1H-pyrazol-5-yl)methyl]-1H-pyrazole-3-carboxamide]
32 | 7.77 | Cc1noc(-c2cc3cc(-c4nc(C(=O)NCc5nnc(C)[nH]5)[nH]c4C)ccc3[nH]2)n1
33 | 9.22 | Cc1noc(-c2cc3cc(-c4nc(C(=O)NCc5cccnc5)[nH]c4C)ccc3[nH]2)n1
34 | 9.40 | Cc1noc(-c2cc3cc(-c4nc(C(=O)NCc5cnn(C)c5)[nH]c4C)ccc3[nH]2)n1 [5-methyl-4-[2-(3-methyl-1,2,4-oxadiazol-5-yl)-1H-indol-5-yl]-N-[(1-methyl-1H-pyrazol-4-yl)methyl]-1H-imidazole-2-carboxamide]
35 | 8.52 | Cc1noc(-c2cc3cc(-c4nc(C(=O)NCc5ccccn5)[nH]c4C)ccc3[nH]2)n1
36 | 8.70 | Cc1noc(-c2cc3cc(-c4nc(C(=O)NCc5nccs5)[nH]c4C)ccc3[nH]2)n1 [5-methyl-4-[2-(3-methyl-1,2,4-oxadiazol-5-yl)-1H-indol-5-yl]-N-(1,3-thiazol-2-ylmethyl)-1H-imidazole-2-carboxamide]
37 | 7.36 | Cc1noc(-c2cc3cc(-c4cc(C(=O)NCc5cccs5)nn4C)ccc3[nH]2)n1
38 | 9.10 | Cn1nc(C(=O)NCc2ccc(C(=O)O)cc2)cc1-c1ccc2[nH]c(-c3ccncc3)cc2c1
39 | 7.57 | Cc1noc(-c2cc3cc(-c4cc(C(=O)NCc5ccco5)nn4C)ccc3[nH]2)n1
40 | 8.72 | Cc1noc(-c2cc3cc(-c4nc(C(=O)NCC5COCCO5)[nH]c4C)ccc3[nH]2)n1 (centres unmarked)
41 | 6.95 | Cc1noc(-c2cc3cc(-c4nc(C(=O)N5CCCC5)[nH]c4C)ccc3[nH]2)n1
42 | 8.89 | Cc1noc(-c2cc3cc(-c4nc(C(=O)NCc5ccnc(N)c5)[nH]c4C)ccc3[nH]2)n1
43 | 7.92 | Cc1noc(-c2cc3cc(-c4ccnc(C(=O)NCc5ccncc5)c4)ccc3[nH]2)n1
44 | 7.28 | Cc1cc(-c2cc3cc(-c4cc(C(=O)NCc5ccc(C(=O)O)cc5)nn4C)ccc3[nH]2)cc(F)n1
45 | 8.22 | Cc1noc(-c2cc3cc(-c4nc(C(=O)NCC5(O)CCOCC5)[nH]c4C)ccc3[nH]2)n1
46 | 9.70 | Cc1noc(-c2cc3cc(-c4nc(C(=O)NCc5ccc(=O)[nH]c5)[nH]c4C)ccc3[nH]2)n1
47 | 7.02 | CCOC(=O)c1cc2nc(-c3nc(C(=O)NCc4ccncc4)[nH]c3C)ccc2[nH]1
48 | 7.31 | CCOC(=O)c1cc2cc(-c3nc(C(=O)NCc4ccncc4)[nH]c3C)cnc2[nH]1
49 | 8.40 | Cc1noc(-c2cc3cc(-c4cc(C(=O)NCc5ccncc5)nn4C)ccc3[nH]2)n1

Row | SMILES | pIC50
50 | CCOC(=O)c1cc2cc(-c3cc(C(=O)NCc4ccncc4)ncc3C)ccc2[nH]1 | 6.81
